Laboratory results reported in patent US6992100B2, “sPLA2 inhibitors” (Eli Lilly and Company, priority 2001, dated 2006).
Structures can show the parent of a compound that is named as a salt.

Key:
[1] = biological target: T1, recombinant human secreted phospholipase A2 (Homo sapiens, UniProt P14555); assay: chromogenic assay of recombinant human secreted phospholipase A2 inhibition; assay type: biochemical; details: diheptanoyl thio-PC substrate, pH 7.5, 40° C. 30 minutes, absorbance at 405 nanometers, triplicate
T1 sequence (P14555 21-144): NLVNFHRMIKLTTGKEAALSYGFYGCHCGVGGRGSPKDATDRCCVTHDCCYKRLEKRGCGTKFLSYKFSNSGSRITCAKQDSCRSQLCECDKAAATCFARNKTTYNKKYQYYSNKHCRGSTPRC
Source text: The following chromogenic assay procedure was used to identify and evaluate inhibitors of recombinant human secreted phospholipase A2. The assay described herein has been adapted for high volume screening using 96 well microtiter plates. A general description of this assay method is found in the article, “Analysis of Human Synovial Fluid Phospholipase A2 on Short Chain Phosphatidylcholine-Mixed Micelles: Development of a Spectrophotometric Assay Suitable for a Microtiterplate Reader”, by Laure J. Reynolds, Lori L. Hughes, and Edward A. Dennis, Analytical Biochemistry, 204, pp. 190–197, 1992 (the disclosure of which is incorporated herein by reference): […]
A measured volume of racemic dipheptanoyl thio PC supplied in chloroform at a concentration of 100 mg/ml is taken to dryness and redissolved in 10 millimolar TRITON X-100™ nonionic detergent aqueous solution. […]
5. Read absorbance of wells at 405 nanometers with an automatic plate reader.
Tests were done in triplicate. […] Compounds initially found to be active were re-assayed to confirm their activity and, if sufficiently active, IC50 values were determined. […] In all cases, % inhibition measured at 405 nanometers generated by enzyme reactions containing inhibitors relative to the uninhibited control reactions was determined. […]

melting point [°C] | IC50 [1] [µM] | Compound
242 to 245 |  | NC(=O)c1c2ccsc2nc2c1c1ccccc1n2Cc1ccccc1 [Example 3, 9-Benzyl-9H-1-thia-9,10-diaza-cyclopenta[b]fluorene-4-carboxylic acid amide]
 | 410 | NC(=O)c1cccc2c1c1c(OCC(=O)O)c3c(cc1n2Cc1ccccc1)CCCC3 [Example 2, (5-Benzyl-1-carbamoyl-7,8,9,10-tetrahydro-5H-benzo[b]carbazol-11-yloxy)-acetic acid, sodium salt]
 | 38.6 | NC(=O)c1cccc2c1c1c(OCC(=O)O)c3ccccc3cc1n2Cc1ccccc1 [Example 1, (5-Benzyl-1-carbamoyl-5H-benzo[b]carbazol-11-yloxy)-acetic acid, sodium salt]
